From ChEMBL document CHEMBL1201862, “PubChem BioAssay data set” (2004)
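Compound exposure: 48 hours, 5 concentrations, 96-well plates. GI50 = concentration required for 50% inhibition of growth.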 The source made the active and inactive calls. Cut-off read from the data, not from the text of the source: active = GI50 up to about 1.1 µM and inactive = higher.

Legend:
Assay in all cases: NCI anticancer screen, dose series, 48 h
786-0 = system: 786-0
A498 = system: A498
COLO 205 = system: COLO 205
DU-145 = system: DU-145
EKVX = system: EKVX
HCC 2998 = system: HCC 2998
HCT-116 = system: HCT-116
HOP-62 = system: HOP-62
M14 = system: M14
MCF7 = system: MCF7
MDA-MB-231 = system: MDA-MB-231
MDA-N = system: MDA-N
Malme-3M = system: Malme-3M
NCI-H460 = system: NCI-H460
NCI/ADR-RES = system: NCI/ADR-RES
OVCAR-3 = system: OVCAR-3
OVCAR-5 = system: OVCAR-5
PC-3 = system: PC-3
RXF 393 = system: RXF 393
SF-295 = system: SF-295
SK-MEL-28 = system: SK-MEL-28
SK-MEL-2 = system: SK-MEL-2
SK-MEL-5 = system: SK-MEL-5
SK-OV-3 = system: SK-OV-3
SN12C = system: SN12C
SNB-19 = system: SNB-19
SNB-75 = system: SNB-75
SW-620 = system: SW-620
T47D = system: T47D
TK-10 = system: TK-10
UACC-257 = system: UACC-257
UO-31 = system: UO-31
A549 = system: A549
ACHN = system: ACHN
CAKI-1 = system: CAKI-1
CCRF-CEM = system: CCRF-CEM
HCT-15 = system: HCT-15
HL-60 = system: HL-60
HOP-92 = system: HOP-92
HT-29 = system: HT-29
Hs-578T = system: Hs-578T
IGROV-1 = system: IGROV-1
K562 = system: K562
KM12 = system: KM12
MOLT-4 = system: MOLT-4
NCI-H23 = system: NCI-H23
OVCAR-4 = system: OVCAR-4
OVCAR-8 = system: OVCAR-8
RPMI-8226 = system: RPMI-8226
SF-268 = system: SF-268
SR = system: SR
U-251 = system: U-251
LOX IMVI = system: LOX IMVI
MDA-MB-435 = system: MDA-MB-435
NCI-H226 = system: NCI-H226
NCI-H522 = system: NCI-H522
SF-539 = system: SF-539
UACC-62 = system: UACC-62

`CN(C)c1ccc(/C=C/c2ccc(S(N)(=O)=O)cc2)cc1` was tested, and the GI50 (786-0) was 16.9 µM (inactive), the GI50 (A498) was 17.7 µM (inactive) and the GI50 (COLO 205) was 24.5 µM (inactive). For the same compound, the GI50 (DU-145) was 13.6 µM (inactive), the GI50 (EKVX) was 21.8 µM (inactive) and the GI50 (HCC 2998) was 34 µM (inactive). For the same compound, the GI50 (HCT-116) was 23.1 µM (inactive), the GI50 (HOP-62) was 18.7 µM (inactive) and the GI50 (M14) was 15.8 µM (inactive). For the same compound, the GI50 (MCF7) was 13.4 µM (inactive), the GI50 (MDA-MB-231) was 13.5 µM (inactive) and the GI50 (MDA-N) was 11.8 µM (inactive). For the same compound, the GI50 (Malme-3M) was 14 µM (inactive), the GI50 (NCI-H460) was 14.9 µM (inactive) and the GI50 (NCI/ADR-RES) was 14.8 µM (inactive). The GI50 (OVCAR-3) was 20.4 µM (inactive), the GI50 (OVCAR-5) was 18 µM (inactive) and the GI50 (PC-3) was 14.8 µM (inactive). For the same compound, the GI50 (RXF 393) was 20.7 µM (inactive), the GI50 (SF-295) was 24.3 µM (inactive) and the GI50 (SK-MEL-28) was 11.5 µM (inactive). For the same compound, the GI50 (SK-MEL-2) was 28.2 µM (inactive), the GI50 (SK-MEL-5) was 11.3 µM (inactive) and the GI50 (SK-OV-3) was 17 µM (inactive). The GI50 (SN12C) was 20.4 µM (inactive), the GI50 (SNB-19) was 20.2 µM (inactive) and the GI50 (SNB-75) was 22.7 µM (inactive). The GI50 (SW-620) was 11.1 µM (inactive), the GI50 (T47D) was 27 µM (inactive) and the GI50 (TK-10) was 20.5 µM (inactive). For the same compound, the GI50 (UACC-257) was 46.5 µM (inactive) and the GI50 (UO-31) was 17.7 µM (inactive).
For `COc1cc(/C=C/c2ccc(O)c(OC)c2)cc(OC)c1`, the GI50 (786-0) was 45.5 µM (inactive), the GI50 (A498) was 21.6 µM (inactive) and the GI50 (A549) was 25.6 µM (inactive). The GI50 (ACHN) was 22.2 µM (inactive), the GI50 (CAKI-1) was 27.1 µM (inactive) and the GI50 (CCRF-CEM) was 14.4 µM (inactive). For the same compound, the GI50 (COLO 205) was > 100 µM (inactive), the GI50 (DU-145) was 23.1 µM (inactive) and the GI50 (EKVX) was 28.2 µM (inactive). The GI50 (HCC 2998) was 49.7 µM (inactive), the GI50 (HCT-116) was 27.5 µM (inactive) and the GI50 (HCT-15) was 14.3 µM. For the same compound, the GI50 (HL-60) was 12.6 µM (inactive), the GI50 (HOP-62) was 50.6 µM (inactive) and the GI50 (HOP-92) was 12.3 µM (inactive). For the same compound, the GI50 (HT-29) was 30.8 µM (inactive), the GI50 (Hs-578T) was 14.2 µM (inactive) and the GI50 (IGROV-1) was 39.9 µM (inactive). The GI50 (K562) was 26.4 µM (inactive), the GI50 (KM12) was 20.8 µM (inactive) and the GI50 (M14) was 21 µM (inactive). The GI50 (MCF7) was 26.2 µM (inactive), the GI50 (MDA-N) was 17.4 µM (inactive) and the GI50 (MOLT-4) was 20.9 µM (inactive). For the same compound, the GI50 (Malme-3M) was 30.7 µM (inactive), the GI50 (NCI-H23) was 26.5 µM (inactive) and the GI50 (NCI-H460) was 19 µM (inactive). For the same compound, the GI50 (NCI/ADR-RES) was 31 µM (inactive), the GI50 (OVCAR-4) was 41.8 µM (inactive) and the GI50 (OVCAR-5) was 31.6 µM (inactive). The GI50 (OVCAR-8) was 37.5 µM (inactive), the GI50 (PC-3) was 10.3 µM (inactive) and the GI50 (RPMI-8226) was 30.3 µM (inactive). For the same compound, the GI50 (RXF 393) was 22.6 µM (inactive), the GI50 (SF-268) was 34.4 µM (inactive) and the GI50 (SF-295) was 17.7 µM (inactive). For the same compound, the GI50 (SK-MEL-28) was 33.1 µM (inactive), the GI50 (SK-MEL-5) was 23.9 µM (inactive) and the GI50 (SK-OV-3) was 26.9 µM (inactive). For the same compound, the GI50 (SNB-19) was 36.4 µM (inactive), the GI50 (SNB-75) was 23.1 µM (inactive) and the GI50 (SR) was 25.8 µM (inactive). The GI50 (SW-620) was 30.1 µM (inactive), the GI50 (T47D) was 33.9 µM (inactive) and the GI50 (TK-10) was 20.2 µM (inactive). For the same compound, the GI50 (U-251) was 19.5 µM (inactive), the GI50 (UACC-257) was 24.8 µM (inactive) and the GI50 (UO-31) was 20 µM (inactive).
`Nc1ncc2c(n1)-c1ccccc1OC2N1CCCC1` (stereo not drawn) was tested, and the GI50 (786-0) was > 100 µM (inactive), the GI50 (A549) was > 100 µM (inactive) and the GI50 (ACHN) was > 100 µM (inactive). The GI50 (CAKI-1) was > 100 µM (inactive), the GI50 (CCRF-CEM) was > 100 µM (inactive) and the GI50 (COLO 205) was > 100 µM (inactive). The GI50 (DU-145) was > 100 µM (inactive), the GI50 (EKVX) was 41.5 µM (inactive) and the GI50 (HCT-116) was > 100 µM (inactive). For the same compound, the GI50 (HCT-15) was greater than 100 µM, the GI50 (HL-60) was 1.9 µM (inactive) and the GI50 (HOP-62) was > 100 µM (inactive). For the same compound, the GI50 (HOP-92) was 83.9 µM (inactive), the GI50 (HT-29) was > 100 µM (inactive) and the GI50 (Hs-578T) was > 100 µM (inactive). The GI50 (IGROV-1) was 80.7 µM (inactive), the GI50 (K562) was > 100 µM (inactive) and the GI50 (KM12) was > 100 µM (inactive). The GI50 (LOX IMVI) was > 100 µM (inactive), the GI50 (M14) was > 100 µM (inactive) and the GI50 (MCF7) was > 100 µM (inactive). The GI50 (MDA-MB-231) was > 100 µM (inactive), the GI50 (MDA-MB-435) was > 100 µM (inactive) and the GI50 (MDA-N) was > 100 µM (inactive). The GI50 (MOLT-4) was > 100 µM (inactive), the GI50 (Malme-3M) was > 100 µM (inactive) and the GI50 (NCI-H226) was > 100 µM (inactive). The GI50 (NCI-H23) was > 100 µM (inactive), the GI50 (NCI-H460) was > 100 µM (inactive) and the GI50 (NCI-H522) was > 100 µM (inactive). The GI50 (NCI/ADR-RES) was > 100 µM (inactive), the GI50 (OVCAR-3) was > 100 µM (inactive) and the GI50 (OVCAR-4) was > 100 µM (inactive). The GI50 (OVCAR-5) was > 100 µM (inactive), the GI50 (OVCAR-8) was > 100 µM (inactive) and the GI50 (PC-3) was > 100 µM (inactive). For the same compound, the GI50 (RPMI-8226) was > 100 µM (inactive), the GI50 (RXF 393) was 94.8 µM (inactive) and the GI50 (SF-268) was > 100 µM (inactive). The GI50 (SF-295) was > 100 µM (inactive), the GI50 (SF-539) was > 100 µM (inactive) and the GI50 (SK-MEL-28) was > 100 µM (inactive). The GI50 (SK-MEL-2) was > 100 µM (inactive), the GI50 (SK-MEL-5) was > 100 µM (inactive) and the GI50 (SK-OV-3) was > 100 µM (inactive). The GI50 (SN12C) was > 100 µM (inactive), the GI50 (SNB-19) was > 100 µM (inactive) and the GI50 (SNB-75) was 29 µM (inactive). For the same compound, the GI50 (SR) was > 100 µM (inactive), the GI50 (SW-620) was > 100 µM (inactive) and the GI50 (TK-10) was > 100 µM (inactive). The GI50 (U-251) was > 100 µM (inactive), the GI50 (UACC-257) was > 100 µM (inactive) and the GI50 (UACC-62) was > 100 µM (inactive). The GI50 (UO-31) was 92 µM (inactive).
`Cc1ccc(S(=O)(=O)OC2C(O)C(O)OC2C(c2cc(O)c3c(c2O)C(=O)c2ccccc2C3=O)c2cc(O)c3c(c2O)C(=O)c2ccccc2C3=O)cc1` (stereo not drawn) was tested, and the GI50 (786-0) was 4.94 µM (inactive), the GI50 (A549) was 3.54 µM (inactive) and the GI50 (CAKI-1) was 2.74 µM (inactive). For the same compound, the GI50 (CCRF-CEM) was 3.89 µM (inactive), the GI50 (COLO 205) was 2.2 µM (inactive) and the GI50 (DU-145) was 5.58 µM (inactive). The GI50 (EKVX) was 3.33 µM (inactive), the GI50 (HCC 2998) was 4.09 µM (inactive) and the GI50 (HCT-15) was 3.4 µM. For the same compound, the GI50 (HL-60) was 1.87 µM (inactive), the GI50 (HOP-62) was 4.11 µM (inactive) and the GI50 (HT-29) was 5.24 µM (inactive). The GI50 (IGROV-1) was 7.1 µM (inactive), the GI50 (K562) was 3.24 µM (inactive) and the GI50 (KM12) was 3.42 µM (inactive). The GI50 (M14) was 2.74 µM (inactive), the GI50 (MCF7) was 3.44 µM (inactive) and the GI50 (MDA-MB-231) was 4.06 µM (inactive). For the same compound, the GI50 (MDA-N) was 3.61 µM (inactive), the GI50 (MOLT-4) was 3.31 µM (inactive) and the GI50 (Malme-3M) was 1.28 µM (inactive). For the same compound, the GI50 (NCI-H23) was 2.99 µM (inactive), the GI50 (OVCAR-8) was 3.44 µM (inactive) and the GI50 (PC-3) was 2.9 µM (inactive). For the same compound, the GI50 (RPMI-8226) was 2.64 µM (inactive), the GI50 (RXF 393) was 5.36 µM (inactive) and the GI50 (SF-295) was 3.76 µM (inactive). For the same compound, the GI50 (SK-MEL-28) was 7.26 µM (inactive), the GI50 (SK-MEL-5) was 3.43 µM (inactive) and the GI50 (SK-OV-3) was 6.25 µM (inactive). The GI50 (SN12C) was 3.65 µM (inactive), the GI50 (SNB-75) was 4.09 µM (inactive) and the GI50 (SR) was 3.08 µM (inactive). For the same compound, the GI50 (SW-620) was 4.65 µM (inactive), the GI50 (T47D) was 5.07 µM (inactive) and the GI50 (TK-10) was 8.71 µM (inactive). For the same compound, the GI50 (UACC-257) was 3.01 µM (inactive) and the GI50 (UACC-62) was 4.38 µM (inactive).
